Laboratory results published in ChEMBL document CHEMBL2029205 (Bioorg Med Chem Lett, 2012).

Assays:
Tyrosinase [1] = target: T1, Tyrosinase (Agaricus bisporus, UniProt O42713); assay: Inhibition of mushroom tyrosinase using L-DOPA as substrate after 20 mins by spectrophotometry
T1 sequence (O42713 whole entry): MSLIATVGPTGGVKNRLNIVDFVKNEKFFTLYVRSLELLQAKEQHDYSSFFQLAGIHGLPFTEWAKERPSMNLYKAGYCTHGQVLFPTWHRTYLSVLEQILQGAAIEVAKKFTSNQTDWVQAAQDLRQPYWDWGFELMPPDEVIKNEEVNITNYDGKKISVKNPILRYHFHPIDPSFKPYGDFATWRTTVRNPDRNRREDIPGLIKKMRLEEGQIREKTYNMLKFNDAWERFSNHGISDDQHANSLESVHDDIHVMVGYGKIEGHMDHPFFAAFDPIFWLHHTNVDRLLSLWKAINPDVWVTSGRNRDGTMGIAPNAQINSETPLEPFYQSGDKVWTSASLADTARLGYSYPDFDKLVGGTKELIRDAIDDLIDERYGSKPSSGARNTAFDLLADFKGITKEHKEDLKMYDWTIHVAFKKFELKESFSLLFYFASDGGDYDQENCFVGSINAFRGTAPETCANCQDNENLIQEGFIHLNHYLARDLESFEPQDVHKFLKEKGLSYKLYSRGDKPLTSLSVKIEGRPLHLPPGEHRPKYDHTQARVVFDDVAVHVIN

Tyrosinase [2] = target: T1, Tyrosinase
Description: Inhibition of mushroom tyrosinase using L-tyrosine as substrate after 20 mins by spectrophotometry

cells = settings: Mus musculus, Melan-a, 96 h
Description: Cytotoxicity against mouse Melan-a cells after 4 days by crystal voilet method

in vitro = settings: mouse, Melan-a cells
Description: Ratio of IC50 for cytotoxicity against mouse Melan-a cells to IC50 for depigmentation in mouse Melan-a cells

Structure (SMILES)	IC50 (Tyrosinase [1])	IC50 (Tyrosinase [2])	IC50 (cells)	selectivity ratio (in vitro)
O=C(OCc1cc(=O)c(O)co1)c1ccc(O)cc1	1.8 µM	2.8 µM	> 80 µM	–
COc1ccc(C(=O)OCc2cc(=O)c(O)co2)cc1	2.05 µM	2.03 µM	> 80 µM	–
O=C(OCc1cc(=O)c(O)co1)c1ccc(O)cc1O	3.61 µM	3.51 µM	> 80 µM	–
COc1ccc(C(=O)OCc2cc(=O)c(O)co2)c(O)c1	20.1 µM	10.6 µM	> 80 µM	–
COc1ccc(C(=O)OCc2cc(=O)c(O)co2)c(OC)c1	4.8 µM	3.23 µM	> 80 µM	–
COc1ccc(C(=O)OCc2cc(=O)c(O)co2)cc1C12CC3CC(CC(C3)C1)C2	> 200 µM	> 200 µM	19 µM	5.55
O=C(OCc1cc(=O)c(O)co1)c1ccc(O)c(C23CC4CC(CC(C4)C2)C3)c1	> 200 µM	> 200 µM	27.6 µM	7.25
O=C(OCc1cc(=O)c(O)co1)c1cc(C23CC4CC(CC(C4)C2)C3)c(O)cc1O	> 200 µM	> 200 µM	27.4 µM	3.41
COc1cc(O)c(C(=O)OCc2cc(=O)c(O)co2)cc1C12CC3CC(CC(C3)C1)C2	> 200 µM	> 200 µM	26.8 µM	3
COc1cc(OC)c(C23CC4CC(CC(C4)C2)C3)cc1C(=O)OCc1cc(=O)c(O)co1	> 200 µM	> 200 µM	17.6 µM	4.39
COc1ccc(C(=O)OCc2cc(=O)c(OC)co2)cc1C12CC3CC(CC(C3)C1)C2	–	–	31.3 µM	6.54
COc1coc(COC(=O)c2ccc(O)c(C34CC5CC(CC(C5)C3)C4)c2)cc1=O	–	–	23.8 µM	6.16
Oc1ccc(O)cc1 [HYDROQUINONE]	–	10 µM	15 µM	3.56
